Test system: Jurkat T cells
Assay: mRNA sequencing of activated Jurkat T cells
Assay type: cell-based, human

## C=CC[C@@H]1/C=C(\C)C[C@H](C)C[C@H](OC)[C@H]2O[C@@](O)(C(=O)C(=O)N3CCCC[C@H]3C(=O)O[C@H](/C(C)=C/[C@@H]3CC[C@@H](O)[C@H](OC)C3)[C@H](C)[C@@H](O)CC1=O)[C@H](C)C[C@@H]2OC [FK506, Tacrolimus, reference compound]
P + I
  CRIM1 FPKM: 0.305 FPKM
  CRTAM FPKM: 3.325 FPKM
  CSF1 FPKM: 1.706 FPKM
  CSF2 FPKM: 0 FPKM
  CST7 FPKM: 2.338 FPKM
  CXCL8 FPKM: 0.937 FPKM
  CXCR3 FPKM: 0.503 FPKM
  DSTYK FPKM: 3.501 FPKM
  FBXO34 FPKM: 14.612 FPKM
  FMNL2 FPKM: 2.726 FPKM
  FOSL2 FPKM: 2.204 FPKM
  FOXO1 FPKM: 1.77 FPKM
  FXYD5 FPKM: 41.346 FPKM
  FYN FPKM: 16.523 FPKM
  GFOD1 FPKM: 4.187 FPKM
  GRK5 FPKM: 8.481 FPKM
  GTDC1 FPKM: 4.629 FPKM
  IL2 FPKM: 0.287 FPKM
  IL3 FPKM: 0.062 FPKM
  IL21R FPKM: 2.244 FPKM
  IL21R-AS1 FPKM: 1.927 FPKM
  IQCJ-SCHIP1 FPKM: 1.657 FPKM
  IRF4 FPKM: 0.423 FPKM
  IRF8 FPKM: 1.19 FPKM
  ISM1 FPKM: 0.726 FPKM
  JAK2 FPKM: 5.248 FPKM
  KCNK1 FPKM: 10.967 FPKM
  KCNK5 FPKM: 3.906 FPKM
  LAMP3 FPKM: 6.412 FPKM
  LAX1 FPKM: 8.052 FPKM
  LIF FPKM: 0.143 FPKM
  LOC729603 FPKM: 2.179 FPKM
  LRRC8B FPKM: 3.555 FPKM
  LTBP4 FPKM: 8.427 FPKM
  MAP2K3 FPKM: 41.815 FPKM
  MIR6775 FPKM: 19.643 FPKM
  MIR6821 FPKM: 13.626 FPKM
  MYO1D FPKM: 4.59 FPKM
  NDFIP1 FPKM: 22.485 FPKM
  NFATC1 FPKM: 3.793 FPKM
  NPDC1 FPKM: 4.328 FPKM
  NR4A2 FPKM: 0.04 FPKM
  NTRK1 FPKM: 0.836 FPKM
  PAM FPKM: 1.483 FPKM
  PDGFA FPKM: 3.25 FPKM
  PELI1 FPKM: 8.175 FPKM
  PHACTR2 FPKM: 2.927 FPKM
  PHEX FPKM: 0.213 FPKM
  PIM3 FPKM: 42.827 FPKM
  PKIA FPKM: 13.962 FPKM
  PLK3 FPKM: 5.257 FPKM
  PLS3 FPKM: 0.052 FPKM
  POU2AF1 FPKM: 2.274 FPKM
  PPIF FPKM: 50.291 FPKM
  PTPN6 FPKM: 20.906 FPKM
  PTPN22 FPKM: 6.37 FPKM
  RDH10 FPKM: 5.856 FPKM
  REL FPKM: 4.749 FPKM
  RGS16 FPKM: 1.172 FPKM
  SCHIP1 FPKM: 1.535 FPKM
  SERPINB2 FPKM: 2.905 FPKM
  SHC4 FPKM: 0.663 FPKM
  SLAMF1 FPKM: 0.217 FPKM
  SLC35E4 FPKM: 0.952 FPKM
  SORBS1 FPKM: 0.4 FPKM
  SPRY1 FPKM: 4.074 FPKM
  STAT5A FPKM: 3.347 FPKM
  TAGAP FPKM: 4.352 FPKM
  TBC1D4 FPKM: 12.549 FPKM
  TBC1D20 FPKM: 17.7 FPKM
  TDRD9 FPKM: 1.245 FPKM
  TIAM2 FPKM: 0.27 FPKM
  TM4SF1 FPKM: 0.439 FPKM
  TNFRSF4 FPKM: 2.933 FPKM
  TNFSF9 FPKM: 2.568 FPKM
  TNFSF14 FPKM: 1.023 FPKM
  TNS3 FPKM: 0.678 FPKM
  VAMP1 FPKM: 14.793 FPKM
  XCL1 FPKM: 0 FPKM
  XCL2 FPKM: 0 FPKM
  ZNF704 FPKM: 0.014 FPKM
  ZNF827 FPKM: 1.521 FPKM
P+I
  ABCB10 FPKM: 10.164 FPKM
  ACTG1 FPKM: 1002.221 FPKM
  ADAM19 FPKM: 5.532 FPKM
  ADD3 FPKM: 13.6 FPKM
  ADORA2B FPKM: 8.219 FPKM
  AGO2 FPKM: 13.242 FPKM
  AIM1 FPKM: 37.047 FPKM
  APOBEC3A_B FPKM: 10.242 FPKM
  APOBEC3B FPKM: 41.16 FPKM
  APOBEC3C FPKM: 16.851 FPKM
  APOBEC3D FPKM: 10.187 FPKM
  APOL2 FPKM: 89.267 FPKM
  APOL6 FPKM: 46.937 FPKM
  AQP3 FPKM: 66.037 FPKM
  ARAP2 FPKM: 15.321 FPKM
  ARC FPKM: 9.966 FPKM
  ARHGAP23 FPKM: 2.576 FPKM
  ARHGEF6 FPKM: 35.366 FPKM
  ASAP1 FPKM: 7.765 FPKM
  ATG14 FPKM: 7.863 FPKM
  ATP2B4 FPKM: 16.449 FPKM
  ATXN1 FPKM: 1.798 FPKM
  BACH2 FPKM: 29.7 FPKM
  BAI2 FPKM: 1.395 FPKM
  BAIAP2-AS1 FPKM: 2.72 FPKM
  BATF3 FPKM: 36.514 FPKM
  BHLHE40 FPKM: 6.563 FPKM
  BTG1 FPKM: 22.099 FPKM
  C1QL1 FPKM: 1.444 FPKM
  C1orf233 FPKM: 0.79 FPKM
  C3 FPKM: 0.489 FPKM
  C9orf9 FPKM: 7.304 FPKM
  C10orf54 FPKM: 0.382 FPKM
  C16orf46 FPKM: 2.655 FPKM
  CASC15 FPKM: 4.027 FPKM
  CBX4 FPKM: 12.478 FPKM
  CBX6 FPKM: 42.006 FPKM
  CCDC64 FPKM: 10.044 FPKM
  CCDC71L FPKM: 13.763 FPKM
  CCL1 FPKM: 0 FPKM
  CCL3L1 FPKM: 0 FPKM
  CCL4 FPKM: 0 FPKM
  CCL4L1 FPKM: 0.087 FPKM
  CCL4L2 FPKM: 0.087 FPKM
  CCND2 FPKM: 0.558 FPKM
  CD1A FPKM: 4.589 FPKM
  CD1C FPKM: 3.288 FPKM
  CD1D FPKM: 2.553 FPKM
  CD27-AS1 FPKM: 5.11 FPKM
  CD27 FPKM: 3.098 FPKM
  CD55 FPKM: 6.015 FPKM
  CD69 FPKM: 125.597 FPKM
  CD83 FPKM: 35.907 FPKM
  CDCA7 FPKM: 26.911 FPKM
  CDT1 FPKM: 11.013 FPKM
  CFD FPKM: 0.937 FPKM
  CHI3L2 FPKM: 58.214 FPKM
  CHRNA9 FPKM: 4.046 FPKM
  CLEC2B FPKM: 60.911 FPKM
  CNR2 FPKM: 0.674 FPKM
  CORO2A FPKM: 1.862 FPKM
  CRIM1 FPKM: 0.305 FPKM
  CRTAM FPKM: 3.325 FPKM
  CSRNP1 FPKM: 26.052 FPKM
  CST7 FPKM: 2.338 FPKM
  CTDSPL FPKM: 1.758 FPKM
  CTTN FPKM: 11.037 FPKM
  CXCL3 FPKM: 3.147 FPKM
  CXCL9 FPKM: 0.839 FPKM
  CXCL10 FPKM: 0.352 FPKM
  CXCR3 FPKM: 0.503 FPKM
  CYB5RL FPKM: 1.807 FPKM
  DFNA5 FPKM: 12.016 FPKM
  DHFR FPKM: 7.656 FPKM
  DNAJB11 FPKM: 107.644 FPKM
  DNAJC1 FPKM: 13.765 FPKM
  DNPEP FPKM: 31.154 FPKM
  DOK2 FPKM: 27.372 FPKM
  DPY19L2P2 FPKM: 2.937 FPKM
  DPYSL2 FPKM: 11 FPKM
  DTX3L FPKM: 48.022 FPKM
  DUSP2 FPKM: 123.613 FPKM
  DUSP5 FPKM: 116.404 FPKM
  E2F1 FPKM: 7.783 FPKM
  E2F2 FPKM: 3.317 FPKM
  EIF2AK3 FPKM: 9.332 FPKM
  ENC1 FPKM: 9.299 FPKM
  ENHO FPKM: 1.746 FPKM
  ENPP1 FPKM: 124.248 FPKM
  EPAS1 FPKM: 5.846 FPKM
  EPHA3 FPKM: 2.019 FPKM
  ERO1LB FPKM: 5.101 FPKM
  ETV5 FPKM: 15.576 FPKM
  EVI2A FPKM: 15.078 FPKM
  FAM46C FPKM: 5.191 FPKM
  FAM111B FPKM: 5.291 FPKM
  FASLG FPKM: 1.518 FPKM
  FBXO34 FPKM: 14.612 FPKM
  FMNL2 FPKM: 2.726 FPKM
  FOS FPKM: 7.329 FPKM
  FOXO1 FPKM: 1.77 FPKM
  FST FPKM: 2.244 FPKM
  FURIN FPKM: 23.264 FPKM
  FYB FPKM: 11.107 FPKM
  GAMT FPKM: 10.915 FPKM
  GBP1 FPKM: 70.024 FPKM
  GBP2 FPKM: 27.591 FPKM
  GBP3 FPKM: 69.945 FPKM
  GBP4 FPKM: 4.384 FPKM
  GBP5 FPKM: 197.514 FPKM
  GDPD5 FPKM: 29.626 FPKM
  GEM FPKM: 2.495 FPKM
  GINS2 FPKM: 16.935 FPKM
  GLIPR2 FPKM: 15.84 FPKM
  GNAQ FPKM: 21.057 FPKM
  GNG2 FPKM: 25.67 FPKM
  GPR3 FPKM: 7.96 FPKM

— US20240376163A1, “PEPTIDE FOR INHIBITING CALCINEURIN AND USE THEREOF” (Seoul National University R&DB Foundation, priority 2023, published 2024)
